Test results from US20260240862A1, “COMBINATION OF ROGINOLISIB AND BCL-2 INHIBITOR IN THE TREATMENT OF HAEMATOLOGICAL MALIGNANCY” (IONCTURA SA, priority 2023, published 2026).

How the values were obtained:
Granta519 (MCL) = assay: MTT antiproliferation assay, combination of Compound 1 and BCL-2 inhibitor, Chou-Talalay Combination Index; type: cell-based; conditions: BCL-2 inhibitor in combination with Compound 1, 72 hours
Protocol: (§1) Venetoclax, S55746, S64315, and S63845, were used at a maximum concentration of 10 μM, following an eight fold dose response based on 1:4 compound dilutions plus an untreated control.
(§2) Cells were incubated for 72 hours at 37° C. and 5% CO2. The antiproliferative effect of single and combination treatments were determined by adding 20 μL MTT [3-(4,5-dimethylthiazolyl-2)-2, 5-diphenyltetrazoliumbromide]reagent (Sigma Aldrich, Buchs, Switzerland) to each well and the plates were incubated at 37° C. for 4 hours, followed by adding 50 μL of sodium dodecyl sulfate (SDS) (250 μM SDS, 0.21% fuming HCl) lysis buffer. The lysed cells were kept overnight, and then the absorbance was read at 570 nm using the Cytation 3 instrument (BioTek, Winoosku, VT, USA). […] The effect of the combinations was defined as strongly synergistic for CI values below <0.3, synergistic for CI values between 0.3 and 0.9, additive for CI values between 0.9 and 1.1, and antagonistic for CI values >1.1.

TMD8 (DLBCL) = assay: as above; type: cell-based; conditions: BCL-2 inhibitor in combination with Compound 1, 72 hours
Protocol: as §1, §2

MJ (CTCL) = assay: as above; type: cell-based; conditions: BCL-2 inhibitor in combination with Compound 1, 72 hours
Protocol: as §1, §2

JVM2 (MCL) = assay: as above; type: cell-based; conditions: BCL-2 inhibitor in combination with Compound 1, 72 hours
Protocol: as §1, §2

MEC1 (CLL) = assay: as above; type: cell-based; conditions: BCL-2 inhibitor in combination with Compound 1, 72 hours
Protocol: as §1, §2

SP49 (MCL) = assay: as above; type: cell-based; conditions: BCL-2 inhibitor in combination with Compound 1, 72 hours
Protocol: as §1, §2

DNMT = conditions: more than that of azacytidine (Zhang 2022); cited from earlier work

SMILES | CI value (median) (Granta519 (MCL)) | CI value (median) (TMD8 (DLBCL)) | CI value (median) (MJ (CTCL)) | CI value (median) (JVM2 (MCL)) | CI value (median) (MEC1 (CLL)) | CI value (median) (SP49 (MCL)) | inhibitory activity of DNMT relative to azacytidine (DNMT)
Cc1c(-c2c(-c3ccc(F)o3)sc3ncnc(O[C@H](Cc4ccccc4OCc4ccnn4CC(F)(F)F)C(=O)O)c23)ccc(OCCN2CCN(C)CC2)c1Cl (atropisomer, axis not shown) [Compound S63845, (R)-2-((5-(3-chloro-2-methyl-4-(2-(4-methylpiperazin-1-yl)ethoxy)phenyl)-6-(5-fluorofuran-2-yl)thieno[2,3-d]pyrimidin-4-yl)oxy)-3-(2-((1-(2,2,2-trifluoroethyl)-1H-pyrazol-5-yl)methoxy)phenyl)propanoic acid] | 0.47 | 0.86 | 0.67 | 0.33 |  |  | 
COc1ccccc1-c1nccc(COc2ccccc2C[C@@H](Oc2ncnc3sc(-c4ccc(F)cc4)c(-c4ccc(OCCN5CCN(C)CC5)c(Cl)c4C)c23)C(=O)O)n1 (atropisomer, axis not shown) [Compound S64315, (R)-2-((5-(3-chloro-2-methyl-4-(2-(4-methylpiperazin-1-yl)ethoxy)phenyl)-6-(4-fluorophenyl)thieno[2,3-d]pyrimidin-4-yl)oxy)-3-(2-((2-(2-methoxyphenyl)pyrimidin-4-yl)methoxy)phenyl)propanoic acid] |  | 0.23 |  | 0.24 | 0.88 | 0.71 | 
O=C(c1cc(-c2cc3c(cc2C(=O)N2Cc4ccccc4C[C@H]2CN2CCOCC2)OCO3)n2c1CCCC2)N(c1ccccc1)c1ccc(O)cc1 [Compound S55746, (S)—N-(4-hydroxyphenyl)-3-(6-(3-(morpholinomethyl)-1,2,3,4-tetrahydroisoquinoline-2-carbonyl)benzo[d][1,3]dioxol-5-yl)-N-phenyl-5,6,7,8-tetrahydroindolizine-1-carboxamide] |  | 0.4 |  | 0.46 | 0.21 |  | 
Nc1ncn([C@H]2C[C@H](O)[C@@H](CO)O2)c(=O)n1 [Decitabine, 5-aza-2′-deoxycytidine] |  |  |  |  |  |  | 30 times
CC1(C)CCC(CN2CCN(c3ccc(C(=O)NS(=O)(=O)c4ccc(NCC5CCOCC5)c([N+](=O)[O-])c4)c(Oc4cnc5[nH]ccc5c4)c3)CC2)=C(c2ccc(Cl)cc2)C1 [Venetoclax, 4-(4-{[2-(4-Chlorophenyl)-4,4-dimethyl-1-cyclohexen-1-yl]methyl}-1-piperazinyl)-N-({3-nitro-4-[(tetrahydro-2H-pyran-4-ylmethyl)amino]phenyl}sulfonyl)-2-(1H-pyrrolo[2,3-b]pyridin-5-yloxy)benzamide] | 0.81 |  | 0.47 | 0.15 | 0.05 |  | 
